Experimental data as given in patent US20170190671A1, “BIS(ARYL)CATECHOL DERIVATIVES AS HERBICIDES” (E I DU PONT DE NEMOURS AND COMPANY, priority 2014, published 2017).

Assays:
Type in all cases: in vivo
[1] = system: barnyardgrass (Echinochloa crus-galli); assay: Test B flooded paddy; conditions: 250 g ai/ha, Flood, 13 to 15 days, scale 0 (no effect) to 100 (complete control)
Procedure, shortened: (§1)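 Compound was added to standing water 3 cm above soil, flood maintained, and plants held in a greenhouse before visual scoring against controls at 13 to 15 days.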

rice (Oryza sativa) = assay: Test B flooded paddy; conditions: 250 g ai/ha, Flood, 13 to 15 days, scale 0 (no effect) to 100 (complete control)
Procedure, shortened: as §1

[2] = system: sedge, umbrella (small-flower umbrella sedge, Cyperus difformis); assay: Test B flooded paddy; conditions: 250 g ai/ha, Flood, 13 to 15 days, scale 0 (no effect) to 100 (complete control)
Procedure, shortened: as §1

[3] = system: ducksalad (Heteranthera limosa); assay: Test B flooded paddy; conditions: 250 g ai/ha, Flood, 13 to 15 days, scale 0 (no effect) to 100 (complete control)
Procedure, shortened: as §1

[4] = system: barnyardgrass (Echinochloa crus-galli); assay: Test A postemergence; conditions: 0 to 100 scale
Procedure, shortened: (§2)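 Pre- and postemergence greenhouse screen. Soil: loam + sand. Spray carrier: solvent mixture, non-phytotoxic, with surfactant. Post timing at 1–2 leaves, height 2–10 cm. Readout: visual injury on a 0–100 scale roughly 10 days after application, untreated plants as reference.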

[5] = system: galium (catchweed bedstraw, Galium aparine); assay: Test A postemergence; conditions: 0 to 100 scale
Procedure, shortened: as §2

[6] = system: wheat (Triticum aestivum); assay: Test A postemergence; conditions: 0 to 100 scale
Procedure, shortened: as §2

[7] = system: giant foxtail (Setaria faberii); assay: Test A postemergence; conditions: 0 to 100 scale
Procedure, shortened: as §2

[8] = system: ragweed (common ragweed, Ambrosia elatior); assay: Test A postemergence; conditions: 0 to 100 scale
Procedure, shortened: as §2

[9] = system: blackgrass (Alopecurus myosuroides); assay: Test A postemergence; conditions: 0 to 100 scale
Procedure, shortened: as §2

[10] = system: pigweed (Amaranthus retroflexus); assay: Test A postemergence; conditions: 0 to 100 scale
Procedure, shortened: as §2

[11] = system: Italian ryegrass (Lolium multiflorum); assay: Test A postemergence; conditions: 0 to 100 scale
Procedure, shortened: as §2

kochia (Kochia scoparia) [12] = assay: Test A postemergence; conditions: 0 to 100 scale
Procedure, shortened: as §2

corn (Zea mays) = assay: Test A postemergence; conditions: 0 to 100 scale
Procedure, shortened: as §2

[13] = system: barnyardgrass (Echinochloa crus-galli); assay: Test A preemergence
Procedure, shortened: as §2

[14] = system: giant foxtail (Setaria faberii); assay: Test A preemergence; conditions: 0 to 100 scale (0 no effect, 100 complete control)
Procedure, shortened: as §2

[15] = system: ragweed (common ragweed, Ambrosia elatior); assay: Test A preemergence; conditions: 0 to 100 scale (0 no effect, 100 complete control)
Procedure, shortened: as §2

[16] = system: pigweed (Amaranthus retroflexus); assay: Test A preemergence; conditions: 0 to 100 scale (0 no effect, 100 complete control)
Procedure, shortened: as §2

[17] = system: Italian ryegrass (Lolium multiflorum); assay: Test A preemergence; conditions: 0 to 100 scale (0 no effect, 100 complete control)
Procedure, shortened: as §2

kochia (Kochia scoparia) [18] = assay: Test A preemergence; conditions: 0 to 100 scale (0 no effect, 100 complete control)
Procedure, shortened: as §2

**Q.** Which results are given for `Fc1ccc(F)c(Oc2ncc(C(F)(F)F)cn2)c1Oc1ncc(Cl)cn1` [Compound 25]?
**A.** Plant response rating, Barnyardgrass [1]: 55; Plant response rating, Rice (rice (Oryza sativa)): 20; Plant response rating, Sedge, Umbrella [2]: 75; Plant response rating, Ducksalad [3]: 90; Plant response rating, Barnyardgrass ([4]; 31 g ai/ha): 10; Plant response rating, Barnyardgrass ([4]; 125 g ai/ha): 60; Plant response rating, Galium ([5]; 31 g ai/ha): 80; Plant response rating, Galium ([5]; 125 g ai/ha): 90; Plant response rating, Wheat ([6]; 31 g ai/ha): 0; Plant response rating, Wheat ([6]; 125 g ai/ha): 30; Plant response rating, Foxtail, Giant ([7]; 31 g ai/ha): 30; Plant response rating, Foxtail, Giant ([7]; 125 g ai/ha): 50; Plant response rating, Ragweed ([8]; 31 g ai/ha): 20; Plant response rating, Ragweed ([8]; 125 g ai/ha): 30; Plant response rating, Blackgrass ([9]; 31 g ai/ha): 60; Plant response rating, Blackgrass ([9]; 125 g ai/ha): 70; Plant response rating, Pigweed ([10]; 31 g ai/ha): 90; Plant response rating, Pigweed ([10]; 125 g ai/ha): 100; Plant response rating, Ryegrass, Italian ([11]; 31 g ai/ha): 0; Plant response rating, Ryegrass, Italian ([11]; 125 g ai/ha): 50; Plant response rating, Kochia (kochia (Kochia scoparia) [12]; 31 g ai/ha): 50; Plant response rating, Kochia (kochia (Kochia scoparia) [12]; 125 g ai/ha): 70; Plant response rating, Corn (corn (Zea mays); 31 g ai/ha): 10; Plant response rating, Corn (corn (Zea mays); 125 g ai/ha): 30; Barnyardgrass plant response rating ([13]; 31 g ai/ha, 0 to 100 scale (0 no effect, 100 complete control)): 10; Plant response rating, Barnyardgrass ([13]; 125 g ai/ha, 0 to 100 scale): 70; Foxtail, Giant plant response rating ([14]; 31 g ai/ha): 50; Foxtail, Giant plant response rating ([14]; 125 g ai/ha): 90; Ragweed plant response rating ([15]; 31 g ai/ha): 0; Ragweed plant response rating ([15]; 125 g ai/ha): 0; Pigweed plant response rating ([16]; 31 g ai/ha): 90; Pigweed plant response rating ([16]; 125 g ai/ha): 100; Ryegrass, Italian plant response rating ([17]; 31 g ai/ha): 10; Ryegrass, Italian plant response rating ([17]; 125 g ai/ha): 40; Kochia plant response rating (kochia (Kochia scoparia) [18]; 31 g ai/ha): 50; Kochia plant response rating (kochia (Kochia scoparia) [18]; 125 g ai/ha): 100
